As a reminder, the inhibition is the relative decrease from the control value, in per cent.

One assay concerns RPMI-8226. Briefly: Antiproliferative activity against human RPMI-8226 assessed as inhibition of cell growth at 1 uM after 8 days measured after Celltiter-Glo assay relative to control. Conditions: Homo sapiens, RPMI-8226, 192 h, time 8 day. It is filed as functional. (In general: ATP-based viability assays read luminescence as a measure of living cells.)
The target of assay [1] is CDK8/Cyclin C (Homo sapiens) (UniProt P49336+P24863). Briefly: Inhibition of human CDK8/Cyc C expressed in Sf21 cells at 1 uM measured after 1 hr by fluorescence plate reader relative to control.
Assay [2] deals with Cyclin-C/Cyclin-dependent kinase 19 (Homo sapiens) (UniProt Q9BWU1+P24863). The assay can be described thus: Inhibition of humanGST-tagged CDK19/Cyc C expressed in Sf21 cells at 1 uM measured after 1 hr by fluorescence plate reader relative to control.

For `O=C(/C=C/c1cnccc1-c1cnn(C2CC2)c1)Nc1ccc2c(c1)CN(CC(F)(F)F)CC2`, the inhibition at 1 µM in the assay on RPMI-8226 was determined as 63%. For the same molecule, the inhibition was 98% in assay [1] and 102% in assay [2].
As to `Cc1noc(C)c1-c1ccc(NC(=O)/C=C/c2cnccc2-c2cnn(C3CC3)c2)c(F)c1`, the inhibition at 1 µM in the assay with RPMI-8226 was determined as 58%. For the same molecule, the inhibition in assay [1] was 103%; in assay [2] it was 98%.
With `Cn1cc(-c2ccncc2/C=C/C(=O)Nc2ccc3c(c2)CCCC3=O)cn1`, the inhibition at 1 µM in the assay with RPMI-8226 is 56%. Also, the figures for the inhibition in assay [1] and in assay [2] were 96% and 92%, respectively.
For `Cn1cc(-c2ccncc2/C=C/C(=O)Nc2ccc3c(c2)CCN(CC(F)(F)F)C3)cn1`, in that order: 65%, 98% and 101%.
For `Cn1ccc2cc(NC(=O)/C=C/c3cnccc3-c3cnn(C4CC4)c3)ccc21`, in that order: 61%, 100% and 97%.
Taken in the same sequence, the figures for `O=C(/C=C/c1cnccc1-c1cnn(C2CC2)c1)Nc1ccc(CN2CC(F)(F)C2)cc1F` were 51%, 105% and 74%.
With `Cn1cc(-c2ccncc2/C=C/C(=O)Nc2ccc(CN3CCCC3CO)cc2)cn1` (stereo not drawn), the inhibition at 1 µM in the assay with RPMI-8226 worked out at 52%. Further, the inhibition in assay [1] is 104%; in assay [2], 93%.
For `O=C(/C=C/c1cnccc1-c1cnn(C(F)F)c1)Nc1ccc(CN2CCOCC2)cc1`, in that order: 53%, 98% and 100%.
Taken in the same sequence, the figures for `O=C(/C=C/c1cncc(F)c1-c1cnn(C2CC2)c1)Nc1ccc(CN2CC3CC(C2)O3)cc1` were 59%, 102% and 101%.
For `O=C(/C=C/c1cnccc1-c1ccns1)Nc1ccc(CN2CCOCC2)cc1`, in that order: 54%, 101% and 98%.
Regarding `Cn1cc(-c2ccncc2/C=C/C(=O)Nc2ccc(CN3CCOC(C)(C)C3)cc2)cn1`, the inhibition at 1 µM with RPMI-8226 was 61%. For the same molecule, the inhibition in assay [1] worked out at 97%; in assay [2], 101%.
Taken in the same sequence, the figures for `COC1CN(Cc2ccc(NC(=O)/C=C/c3cnccc3-c3cnn(C4CC4)c3)cc2)C1` were 59%, 101% and 99%.
Taken in the same sequence, the figures for `Cn1cc(-c2ccncc2/C=C/C(=O)Nc2ccc(CNCC(F)(F)C(F)(F)F)cc2)cn1` were 56%, 101% and 99%.
Taken in the same sequence, the figures for `Cn1cc(-c2ccncc2/C=C/C(=O)Nc2ccc(CN3CC4CCC(C3)O4)cc2)cn1` were 61%, 96% and 97%.
With `CC(C)(F)Cc1ccc(NC(=O)/C=C/c2cnccc2-c2cnn(C3CC3)c2)cc1`, the inhibition at 1 µM in the assay on RPMI-8226 was 61%. The figures for the inhibition in assay [1] and in assay [2] were 102% and 95%, respectively.
For `Cn1cnc2ccc(-c3ccncc3/C=C/C(=O)Nc3ccc(CN4CCOCC4)cc3)cc21`, in that order: 65%, 102% and 102%.
Taken in the same sequence, the figures for `O=C(/C=C/c1cnccc1-c1cnn(Cc2ccccc2)c1)Nc1ccc(CN2CCOCC2)cc1` were 63%, 101% and 101%.
Taken in the same sequence, the figures for `Cn1cc(-c2ccncc2/C=C/C(=O)Nc2ccc(CN3CCOCC3)c(C#N)c2)cn1` were 54%, 100% and 99%.
Take `CC(C)(O)Cc1ccc(NC(=O)/C=C/c2cncc(F)c2-c2cnn(C3CC3)c2)c(F)c1`: in the assay on RPMI-8226, the inhibition at 1 µM turned out to be 60%. In addition, the figures for the inhibition in assay [1] and in assay [2] were 102% and 99%, respectively.
Regarding `Cn1cc(-c2ccncc2/C=C/C(=O)Nc2ccc(CN3CC(F)(F)OC(F)(F)C3)cc2)cn1`, the inhibition at 1 µM in the assay with RPMI-8226 came to 55%. Further, the figures for the inhibition in assay [1] and in assay [2] were 97% and 98%, respectively.
Taken in the same sequence, the figures for `Cn1cc(-c2ccncc2/C=C/C(=O)Nc2cc(F)c(CN3CCOCC3)cc2F)cn1` were 66%, 94% and 91%.
For `Cc1cc(NC(=O)/C=C/c2cnccc2-c2cnn(C3CC3)c2)ccc1CN1CCOCC1`, in that order: 62%, 98% and 99%.
On to `O=C(/C=C/c1cnccc1-c1cccs1)Nc1ccc(CCc2nnco2)cc1`, for which the inhibition at 1 µM with RPMI-8226 turned out to be 59%. The inhibition in assay [1] turned out to be 101%; in assay [2], 100%.
Taken in the same sequence, the figures for `CCn1cc(-c2ccncc2/C=C/C(=O)Nc2ccc(CN3CCOCC3)cc2)cn1` were 63%, 96% and 100%.
For `Cn1cc(-c2ccncc2/C=C/C(=O)Nc2cccc(-c3cccnc3)c2)cn1`, in that order: 58%, 84% and 78%.
Regarding `O=C(/C=C/c1cnccc1-c1ccc2nccn2c1)Nc1ccc(CN2CCOCC2)cc1`, the inhibition at 1 µM with RPMI-8226 was 52%. Also, the results for the inhibition in assay [1] and in assay [2] were 101% and 100%, respectively.
Taken in the same sequence, the figures for `Cn1cc(-c2ccncc2/C=C/C(=O)Nc2ccc(CN3CCN4CCCC4C3)cc2)cn1` (stereo not drawn) were 59%, 100% and 74%.
Consider `CN(C)CCc1ccc(NC(=O)/C=C/c2cnccc2-c2cnn(C)c2)cc1`, for which the inhibition at 1 µM in the assay with RPMI-8226 worked out at 66%. In addition, the inhibition in assay [1] and in assay [2] was 98% throughout.
With `COc1ccc(-c2ccncc2/C=C/C(=O)Nc2ccc(CN3CCOCC3)cc2)s1`, the inhibition at 1 µM in the assay on RPMI-8226 is 58%. Further, the inhibition was 93% in assay [1] and 96% in assay [2].
Taken in the same sequence, the figures for `O=C(/C=C/c1cnccc1-c1cnn(CC2CC2)c1)Nc1ccc(CCN2CCOCC2)cc1` were 58%, 94% and 97%.
Taken in the same sequence, the figures for `Cn1cc(-c2c(F)cncc2/C=C/C(=O)Nc2ccc(CN3CCOCC3)cc2F)cn1` were 53%, 98% and 99%.
Taken in the same sequence, the figures for `COCCOc1ccc(NC(=O)/C=C/c2cnccc2-c2cnn(C)c2)cc1` were 62%, 98% and 97%.
`Cn1cc(-c2ccncc2/C=C/C(=O)Nc2ccc3c(ccn3C)c2)cn1`: the inhibition at 1 µM in the assay with RPMI-8226 was 55%. In addition, the values for the inhibition in assay [1] and in assay [2] were 98% and 99%, respectively.
For `Cn1cc(-c2ccncc2/C=C/C(=O)Nc2ccc(CNC3CC3)cc2)cn1`, in that order: 56%, 95% and 96%.
Taken in the same sequence, the figures for `O=C(/C=C/c1cnccc1-c1cnn(C2CC2)c1)Nc1ccc(COCC(F)(F)F)cc1F` were 53%, 101% and 96%.
Take `O=C(/C=C/c1cnccc1-c1cnn(CC2(F)CC2)c1)Nc1ccc(CN2CCOCC2)cc1`: the inhibition at 1 µM with RPMI-8226 is 57%. For the same molecule, the values for the inhibition in assay [1] and in assay [2] were 99% and 101%, respectively.

For the origin of these results see ChEMBL document CHEMBL4742385 (2019).
